Assay results reported in ChEMBL document CHEMBL5614442, “Discovery, synthesis and biological evaluation of novel isoquinoline derivatives as potent indoleamine 2, 3-dioxygenase 1 and tryptophan 2, 3-dioxygenase dual inhibitors” (Eur J Med Chem, 2024).

Key:
[1] = molecular target: T1, Indoleamine 2,3-dioxygenase 1 (Homo sapiens, UniProt P14902); assay: Inhibition of N-terminal His-tagged recombinant human IDO1 extracted from Escherichia coli Transetta (DE3) using L-tryptophan as substrate preincubated for 5 mins followed by substrate addition and measured after 1 hrs by absorbance based microplate reader
Target sequence in this assay (P14902 whole entry): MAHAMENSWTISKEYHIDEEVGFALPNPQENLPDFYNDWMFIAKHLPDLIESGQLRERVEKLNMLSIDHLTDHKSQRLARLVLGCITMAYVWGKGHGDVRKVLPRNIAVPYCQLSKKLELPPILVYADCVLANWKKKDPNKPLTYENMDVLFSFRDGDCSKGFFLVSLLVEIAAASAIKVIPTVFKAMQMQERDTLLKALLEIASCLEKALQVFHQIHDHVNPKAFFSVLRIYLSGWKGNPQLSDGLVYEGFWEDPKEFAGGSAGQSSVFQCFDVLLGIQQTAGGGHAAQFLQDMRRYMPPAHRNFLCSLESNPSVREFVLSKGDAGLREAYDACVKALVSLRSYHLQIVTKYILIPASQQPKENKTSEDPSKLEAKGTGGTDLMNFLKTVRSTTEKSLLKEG

[2] = molecular target: T1, Indoleamine 2,3-dioxygenase 1; assay: Inhibition of IDO1 in IFN-gamma induced human HeLa cells using L-tryptophan as substrate incubated for 24 hrs by absorbance based microplate analysis; assay type: cell-based
Target sequence in this assay (P14902 whole entry): as above

[3] = molecular target: T2, Tryptophan 2,3-dioxygenase (Homo sapiens, UniProt P48775)
Target sequence in this assay (P48775 whole entry): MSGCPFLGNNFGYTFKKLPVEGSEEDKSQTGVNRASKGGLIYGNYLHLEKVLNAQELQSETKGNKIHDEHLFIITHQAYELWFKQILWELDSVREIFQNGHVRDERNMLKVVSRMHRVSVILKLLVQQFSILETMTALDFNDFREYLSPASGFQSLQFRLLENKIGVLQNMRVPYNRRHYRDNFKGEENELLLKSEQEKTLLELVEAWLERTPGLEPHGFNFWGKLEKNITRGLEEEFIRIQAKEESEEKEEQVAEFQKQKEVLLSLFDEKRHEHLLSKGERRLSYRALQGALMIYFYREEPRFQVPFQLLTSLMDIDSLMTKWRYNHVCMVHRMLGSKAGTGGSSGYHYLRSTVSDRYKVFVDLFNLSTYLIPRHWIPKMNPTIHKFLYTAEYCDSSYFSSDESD

[4] = molecular target: T2, Tryptophan 2,3-dioxygenase; remark: listed apart in the source
Target sequence in this assay (P48775 whole entry): as above

[5] = system: HeLa; assay: Cytotoxicity against human HeLa cells assessed as reduction in cell viability at effective concentration incubated for 24 hrs by CCK8 assay; assay type: toxicity, cell-based
[6] = system: HEK-293T; assay: Cytotoxicity against HEK293T cells assessed as reduction in cell viability at effective concentration incubated for 24 hrs by CCK8 assay; assay type: toxicity, cell-based; conditions: human
[7] = AUC (0 to t) in male Sprague-Dawley rat at 20 mg/kg, ip measured after 8 hrs by LC-MS analysis; assay type: ADME, organism-based; conditions: in vivo
[8] = AUC (0 to infinity) in male Sprague-Dawley rat at 20 mg/kg, ip measured after 8 hrs by LC-MS analysis; assay type: ADME, organism-based; conditions: in vivo
[9] = system: B16-F10; assay: Cytotoxicity against mouse B16-F10 cells assessed as reduction in cell viability at effective concentration incubated for 24 hrs by CCK8 assay; assay type: toxicity, cell-based; conditions: b16-f10, 24 h
[10] = system: U-87 MG; assay: Cytotoxicity against human U87 cells assessed as reduction in cell viability at effective concentration incubated for 24 hrs by CCK8 assay; assay type: toxicity, cell-based; conditions: u-87mg atcc
[11] = molecular target: T1, Indoleamine 2,3-dioxygenase 1; assay: Binding affinity to recombinant human IDO1 assessed as dissociation rate constant at 0.78 to 25 uM by SPR analysis
Target sequence in this assay (P14902 whole entry): as the sequence (P14902 whole entry) above

[12] = molecular target: T1, Indoleamine 2,3-dioxygenase 1; assay: Binding affinity to recombinant human IDO1 assessed as equilibrium dissociation constant by SPR analysis
Target sequence in this assay (P14902 whole entry): as above

[13] = AUC (0 to t) in male Sprague-Dawley rat at 2 mg/kg, iv measured after 8 hrs by LC-MS analysis; assay type: ADME, organism-based; conditions: in vivo
[14] = AUC (0 to infinity) in male Sprague-Dawley rat at 2 mg/kg, iv measured after 8 hrs by LC-MS analysis; assay type: ADME, organism-based; conditions: in vivo
[15] = Half-life in male Sprague-Dawley rat at 2 mg/kg, iv measured after 8 hrs by LC-MS analysis; assay type: ADME, organism-based; conditions: in vivo
[16] = Tmax in male Sprague-Dawley rat at 2 mg/kg, iv measured after 8 hrs by LC-MS analysis; assay type: ADME, organism-based; conditions: in vivo
[17] = Clearance in male Sprague-Dawley rat at 2 mg/kg, iv measured after 8 hrs by LC-MS analysis; assay type: ADME, organism-based; conditions: in vivo
[18] = Volume of distribution in male Sprague-Dawley rat at 2 mg/kg, iv measured after 8 hrs by LC-MS analysis; assay type: ADME, organism-based; conditions: in vivo
[19] = Cmax in male Sprague-Dawley rat at 2 mg/kg, iv measured after 8 hrs by LC-MS analysis; assay type: ADME, organism-based; conditions: in vivo
[20] = Half-life in male Sprague-Dawley rat at 20 mg/kg, ip measured after 8 hrs by LC-MS analysis; assay type: ADME, organism-based; conditions: in vivo
[21] = Tmax in male Sprague-Dawley rat at 20 mg/kg, ip measured after 8 hrs by LC-MS analysis; assay type: ADME, organism-based; conditions: in vivo
[22] = Clearance in male Sprague-Dawley rat at 20 mg/kg, ip measured after 8 hrs by LC-MS analysis; assay type: ADME, organism-based; conditions: in vivo
[23] = Volume of distribution in male Sprague-Dawley rat at 20 mg/kg, ip measured after 8 hrs by LC-MS analysis; assay type: ADME, organism-based; conditions: in vivo
[24] = Cmax in male Sprague-Dawley rat at 20 mg/kg, ip measured after 8 hrs by LC-MS analysis; assay type: ADME, organism-based; conditions: in vivo
[25] = Bioavailability in male Sprague-Dawley rat at 20 mg/kg, ip measured after 8 hrs by LC-MS analysis; assay type: ADME, organism-based; conditions: in vivo
[26] = AUC (0 to t) in male Sprague-Dawley rat at 100 mg/kg, po measured after 8 hrs by LC-MS analysis; assay type: ADME, organism-based; conditions: in vivo
[27] = AUC (0 to infinity) in male Sprague-Dawley rat at 100 mg/kg, po measured after 8 hrs by LC-MS analysis; assay type: ADME, organism-based; conditions: in vivo
[28] = Half-life in male Sprague-Dawley rat at 100 mg/kg, po measured after 8 hrs by LC-MS analysis; assay type: ADME, organism-based; conditions: in vivo
[29] = Tmax in male Sprague-Dawley rat at 100 mg/kg, po measured after 8 hrs by LC-MS analysis; assay type: ADME, organism-based; conditions: in vivo
[30] = Clearance in male Sprague-Dawley rat at 100 mg/kg, po measured after 8 hrs by LC-MS analysis; assay type: ADME, organism-based; conditions: in vivo
[31] = Volume of distribution in male Sprague-Dawley rat at 100 mg/kg, po measured after 8 hrs by LC-MS analysis; assay type: ADME, organism-based; conditions: in vivo
[32] = Cmax in male Sprague-Dawley rat at 100 mg/kg, po measured after 8 hrs by LC-MS analysis; assay type: ADME, organism-based; conditions: in vivo
[33] = Oral bioavailability in male Sprague-Dawley rat at 100 mg/kg measured after 8 hrs by LC-MS analysis; assay type: ADME, organism-based; conditions: in vivo
[34] = system: B16-F10; assay: Antitumor activity against mouse B16-F10 cells implanted in male C57BL/6 mouse model assessed as suppression of tumor growth administered intraperitoneally once daily for 14 days; assay type: functional, cell-based; conditions: dose 25-100 mg/kg, route ip, time 14.0 day
[35] = Toxicity in male C57BL/6 mouse implanted with mouse B16-F10 cells assessed as body weight loss at 25 to 100 mg/kg, ip administered once daily for 14 days; assay type: organism-based; conditions: in vivo, 336 h, dose 25-100 mg/kg, time 14 day
[36] = Toxicity in male C57BL/6 mouse implanted with mouse B16-F10 cells assessed as effect on heart morphology at 25 to 100 mg/kg, ip administered once daily for 14 days by H and E staining based analysis; assay type: organism-based; conditions: in vivo, 336 h, dose 25-100 mg/kg, time 14 day
[37] = Toxicity in male C57BL/6 mouse implanted with mouse B16-F10 cells assessed as effect on liver morphology at 25 to 100 mg/kg, ip administered once daily for 14 days by H and E staining based analysis; assay type: organism-based; conditions: in vivo, 336 h, dose 25-100 mg/kg, time 14 day
[38] = Toxicity in male C57BL/6 mouse implanted with mouse B16-F10 cells assessed as effect on spleen morphology at 25 to 100 mg/kg, ip administered once daily for 14 days by H and E staining based analysis; assay type: organism-based; conditions: in vivo, 336 h, dose 25-100 mg/kg, time 14 day
[39] = Toxicity in male C57BL/6 mouse implanted with mouse B16-F10 cells assessed as effect on lung morphology at 25 to 100 mg/kg, ip administered once daily for 14 days by H and E staining based analysis; assay type: organism-based; conditions: in vivo, 336 h, dose 25-100 mg/kg, time 14 day
[40] = Toxicity in male C57BL/6 mouse implanted with mouse B16-F10 cells assessed as effect on kidney morphology at 25 to 100 mg/kg, ip administered once daily for 14 days by H and E staining based analysis; assay type: organism-based; conditions: in vivo, 336 h, dose 25-100 mg/kg, time 14 day
[41] = molecular target: T2, Tryptophan 2,3-dioxygenase; remark: listed apart in the source
Target sequence in this assay (P48775 whole entry): as the sequence (P48775 whole entry) above

[42] = molecular target: T1, Indoleamine 2,3-dioxygenase 1; conditions: dose 0.78-25 µM
Target sequence in this assay (P14902 whole entry, looked up): as the sequence (P14902 whole entry) above

[43] = molecular target: T2, Tryptophan 2,3-dioxygenase; conditions: dose 0.78-25 µM
Target sequence in this assay (P48775 whole entry, looked up): as the sequence (P48775 whole entry) above

COc1ccc(-c2cc3ccc(OC)c(O)c3cn2)cc1
IC50 [1]: 0.71 µM
IC50 [2]: 15.8 µM
IC50 [3]: 0.45 µM
IC50 [4]: > 30 µM

COc1ccc2nc(-c3ccccc3)ncc2c1O
IC50 [1]: > 100 µM
IC50 [3]: > 100 µM

COc1ccc2nc(-c3ccccc3)ccc2c1O
IC50 [1]: > 100 µM
IC50 [3]: 5.6 µM

COc1ccc2cc(-c3ccc(C(=O)Nc4ccccc4)cc3)ncc2c1O
IC50 [1]: 10.1 µM
IC50 [2]: > 30 µM
IC50 [3]: 0.25 µM
IC50 [4]: 22.3 µM

COc1ccc2cc(-c3ccc(NC(=O)C(C)(C)C)cc3)ncc2c1O
IC50 [1]: 2.81 µM
IC50 [3]: 1.2 µM

COc1ccc2cc(-c3ccc(F)cc3)ncc2c1O
IC50 [1]: > 100 µM
IC50 [3]: 51 µM

COc1ccc2cc(-c3ccc(NS(=O)(=O)C(F)(F)F)cc3)ncc2c1O
IC50 [1]: 0.31 µM
IC50 [2]: 9.29 µM
Activity [5]: Non-Toxic
Activity [6]: Non-Toxic
AUC(0-t) at 8 h [7]: 6690 ng·h/mL
AUC(0-inf) [8]: 6660 ng·h/mL
Activity [9]: Non-Toxic
Activity [10]: Non-Toxic
koff [11]: 0.021 s⁻¹
Kd [12]: 0.45 µM
AUC(0-t) at 8 h [13]: 916 ng·h/mL
AUC(0-inf) [14]: 917 ng·h/mL
half-life [15]: 2.14 h
Tmax [16]: 4.98 min
clearance [17]: 37.6 mL/min/kg
Vd [18]: 6.9 L/kg
Cmax [19]: 3420 ng/mL
half-life [20]: 1.2 h
Tmax [21]: 0.25 h
CL/F [22]: 50 mL/min/kg
Vd [23]: 5.17 L/kg
Cmax [24]: 11400 ng/mL
bioavailability [25]: 72.6%
AUC(0-t) at 8 h [26]: 23300 ng·h/mL
AUC(0-inf) [27]: 28400 ng·h/mL
half-life [28]: 2.8 h
Tmax [29]: 1.33 h
CL/F [30]: 59.7 mL/min/kg
Vd [31]: 14.376 L/kg
Cmax [32]: 5190 ng/mL
bioavailability [33]: 61.9%
Activity [34]: Dose-Dependent Effect
Activity [35]: Non-Toxic
Activity [36]: Non-Toxic
Activity [37]: Non-Toxic
Activity [38]: Non-Toxic
Activity [39]: Non-Toxic
Activity [40]: Non-Toxic
IC50 [3]: 0.08 µM
IC50 [4]: 7.23 µM
Kd [41]: 0.74 µM
Ka [42]: 4.69 10^4/Ms
Ka [43]: 4.9 10^4/Ms

COc1ccc2cc(-c3ccc(NS(C)(=O)=O)cc3)ncc2c1O
IC50 [1]: 1.24 µM
IC50 [2]: 23 µM
IC50 [3]: 0.2 µM
IC50 [4]: 14.8 µM

COc1ccc2cc(-c3ccc(NC(=O)c4ccc(C(F)(F)F)cc4)cc3)ncc2c1O
IC50 [1]: > 100 µM
IC50 [3]: 3.25 µM

COc1ccc2cc(-c3ccccc3)ncc2c1O
IC50 [1]: 0.89 µM
IC50 [2]: 17.1 µM
IC50 [3]: 0.24 µM
IC50 [4]: 24 µM

COc1ccc2cc(-c3cc4ccccc4o3)ncc2c1OC
IC50 [1]: > 100 µM
IC50 [3]: > 100 µM

COc1cccc(C(=O)Nc2ccc(-c3cc4ccc(OC)c(O)c4cn3)cc2)c1
IC50 [1]: 14.2 µM
IC50 [3]: 4.08 µM

COc1ccc2cc(-c3ccc(NS(=O)(=O)C4CC4)cc3)ncc2c1O
IC50 [1]: 4.54 µM
IC50 [3]: 3.36 µM

COc1ccc(-c2ccc3c(O)c(OC)ccc3n2)cc1
IC50 [1]: > 100 µM
IC50 [3]: > 100 µM

COc1ccc2cc(-c3ccc(NC(C)=O)cc3)ncc2c1O
IC50 [1]: 2.11 µM
IC50 [2]: > 30 µM
IC50 [3]: 0.35 µM
IC50 [4]: > 30 µM

COc1ccc2cc(-c3ccc(C(F)(F)F)cc3)ncc2c1O
IC50 [1]: 15.3 µM
IC50 [3]: 7.28 µM

COc1ccc2cc(-c3ccc4c(c3)OCO4)ncc2c1O
IC50 [1]: 5.1 µM
IC50 [2]: > 30 µM
IC50 [3]: 0.28 µM
IC50 [4]: 25.8 µM

COc1ccc2cc(-c3ccc(NC(=O)C(F)(F)F)cc3)ncc2c1O
IC50 [1]: 6.13 µM
IC50 [3]: 1.16 µM

COc1ccc2cc(-c3ccc(NC(=O)c4ccc(C)cc4)cc3)ncc2c1O
IC50 [1]: > 100 µM
IC50 [3]: 45.3 µM

COc1ccc2cc(-c3ccc(C(C)(C)C)cc3)ncc2c1OC
IC50 [1]: > 100 µM
IC50 [3]: 23.1 µM
